Measurements reported in the NIST ThermoML archive (doi:10.1021/je900598y).

Assays:
[1] = 298.15 K; 101.33 kPa; Liquid
[2] = excess molar enthalpy (molar enthalpy of mixing); xn = mol fraction of the nth substance listed; settings: 298.15 K, Liquid, Calvet calorimetry

CCCCCCCCCCCC [dodecane]
Settings	mass density [kg/m3]
[1]	745.28

CCCCCCCCCCCCCCCC [hexadecane]
Settings	mass density [kg/m3]
[1]	770.31

CCCCC(=O)OC(=O)CCCC [pentanoic anhydride]
Settings	mass density [kg/m3]
[1]	939.15

CCCCC(=O)OC(=O)CCCC [pentanoic anhydride] + CCCCCCCCCCCC
[2]
Settings	excess molar enthalpy [kcal/mol]
x1 = 0.0248	0.0469
x1 = 0.0484	0.0865
x1 = 0.0709	0.118
x1 = 0.0923	0.146
x1 = 0.1128	0.169
x1 = 0.1324	0.189
x1 = 0.1511	0.207
x1 = 0.1691	0.222
x1 = 0.1914	0.239
x1 = 0.2126	0.253
x1 = 0.2327	0.265
x1 = 0.2518	0.276
x1 = 0.2699	0.285
x1 = 0.2827	0.292
x1 = 0.3038	0.299
x1 = 0.3195	0.305
x1 = 0.3411	0.315
x1 = 0.3488	0.317
x1 = 0.3569	0.319
x1 = 0.3654	0.321
x1 = 0.3743	0.323
x1 = 0.3837	0.325
x1 = 0.3935	0.327
x1 = 0.4025	0.328
x1 = 0.4118	0.329
x1 = 0.4217	0.33
x1 = 0.432	0.331
x1 = 0.4428	0.332
x1 = 0.4542	0.333
x1 = 0.4644	0.333
x1 = 0.475	0.333
x1 = 0.4861	0.332
x1 = 0.4978	0.332
x1 = 0.51	0.331
x1 = 0.5229	0.329
x1 = 0.5342	0.327
x1 = 0.5461	0.326
x1 = 0.5585	0.323
x1 = 0.5715	0.32
x1 = 0.5851	0.317
x1 = 0.5993	0.313
x1 = 0.6122	0.309
x1 = 0.6257	0.305
x1 = 0.6398	0.3
x1 = 0.6545	0.294
x1 = 0.6699	0.287
x1 = 0.6861	0.28
x1 = 0.7003	0.272
x1 = 0.7151	0.265
x1 = 0.7305	0.256
x1 = 0.7467	0.246
x1 = 0.7635	0.235
x1 = 0.7811	0.223
x1 = 0.7967	0.211
x1 = 0.8129	0.199
x1 = 0.8298	0.185
x1 = 0.8474	0.17
x1 = 0.8657	0.153
x1 = 0.8849	0.135
x1 = 0.9022	0.117
x1 = 0.9202	0.0976
x1 = 0.9389	0.0768
x1 = 0.9584	0.0528
x1 = 0.9788	0.028

CCCCC(=O)OC(=O)CCCC [pentanoic anhydride] + CCCCCCCCCCCCCC
[2]
Settings	excess molar enthalpy [kcal/mol]
x1 = 0.0319	0.0605
x1 = 0.0618	0.11
x1 = 0.0899	0.149
x1 = 0.1164	0.182
x1 = 0.1414	0.208
x1 = 0.165	0.232
x1 = 0.1873	0.251
x1 = 0.2126	0.271
x1 = 0.2363	0.287
x1 = 0.2587	0.3
x1 = 0.2798	0.311
x1 = 0.2997	0.32
x1 = 0.3186	0.328
x1 = 0.3364	0.335
x1 = 0.3569	0.342
x1 = 0.3714	0.35
x1 = 0.381	0.352
x1 = 0.3911	0.355
x1 = 0.402	0.357
x1 = 0.413	0.359
x1 = 0.4294	0.36
x1 = 0.4312	0.362
x1 = 0.4416	0.362
x1 = 0.4524	0.363
x1 = 0.4638	0.364
x1 = 0.4757	0.364
x1 = 0.4883	0.364
x1 = 0.5015	0.363
x1 = 0.5127	0.362
x1 = 0.5245	0.361
x1 = 0.5369	0.36
x1 = 0.5498	0.357
x1 = 0.5633	0.355
x1 = 0.5776	0.351
x1 = 0.5926	0.348
x1 = 0.6049	0.344
x1 = 0.6178	0.34
x1 = 0.6313	0.335
x1 = 0.6454	0.33
x1 = 0.6601	0.324
x1 = 0.6754	0.317
x1 = 0.6916	0.308
x1 = 0.7052	0.301
x1 = 0.7194	0.293
x1 = 0.7341	0.284
x1 = 0.7495	0.274
x1 = 0.7655	0.263
x1 = 0.7822	0.25
x1 = 0.7997	0.236
x1 = 0.8145	0.224
x1 = 0.8299	0.21
x1 = 0.8459	0.195
x1 = 0.8625	0.178
x1 = 0.8798	0.16
x1 = 0.8978	0.14
x1 = 0.9133	0.121
x1 = 0.9294	0.101
x1 = 0.9461	0.0789
x1 = 0.9634	0.0549
x1 = 0.9814	0.0287

CCCCC(=O)OC(=O)CCCC [pentanoic anhydride] + CCCCCCCCCCCCCCCC
[2]
Settings	excess molar enthalpy [kcal/mol]
x1 = 0.0353	0.0694
x1 = 0.0683	0.125
x1 = 0.099	0.169
x1 = 0.1278	0.205
x1 = 0.1567	0.236
x1 = 0.1837	0.263
x1 = 0.209	0.284
x1 = 0.2329	0.302
x1 = 0.2553	0.317
x1 = 0.277	0.33
x1 = 0.2993	0.342
x1 = 0.3202	0.352
x1 = 0.3399	0.36
x1 = 0.3619	0.367
x1 = 0.3825	0.372
x1 = 0.4019	0.377
x1 = 0.42	0.38
x1 = 0.4371	0.382
x1 = 0.4532	0.383
x1 = 0.4705	0.384
x1 = 0.4866	0.384
x1 = 0.5018	0.383
x1 = 0.5161	0.382
x1 = 0.5296	0.381
x1 = 0.5424	0.379
x1 = 0.5564	0.377
x1 = 0.5695	0.374
x1 = 0.5819	0.371
x1 = 0.5935	0.368
x1 = 0.6046	0.365
x1 = 0.6168	0.363
x1 = 0.6292	0.358
x1 = 0.6421	0.353
x1 = 0.6556	0.348
x1 = 0.6696	0.342
x1 = 0.6842	0.335
x1 = 0.697	0.328
x1 = 0.7103	0.321
x1 = 0.7242	0.313
x1 = 0.7386	0.303
x1 = 0.7536	0.293
x1 = 0.7692	0.282
x1 = 0.7832	0.271
x1 = 0.7977	0.259
x1 = 0.8128	0.246
x1 = 0.8285	0.231
x1 = 0.8448	0.215
x1 = 0.8591	0.199
x1 = 0.8739	0.183
x1 = 0.8892	0.164
x1 = 0.905	0.145
x1 = 0.9214	0.123
x1 = 0.9361	0.103
x1 = 0.9513	0.0797
x1 = 0.967	0.0552
x1 = 0.9832	0.0282

CCCCCCCCCCCCCC [tetradecane]
Settings	mass density [kg/m3]
[1]	760.2
